The source of these data is ChEMBL document CHEMBL4052809, “Development of a highly reliable assay for ubiquitin-specific protease 2 inhibitors” (Bioorg Med Chem Lett, 2017).

Test [1] concerns the target T1, Ubiquitin carboxyl-terminal hydrolase 2 (Homo sapiens) (UniProt O75604).
T1 sequence (whole entry): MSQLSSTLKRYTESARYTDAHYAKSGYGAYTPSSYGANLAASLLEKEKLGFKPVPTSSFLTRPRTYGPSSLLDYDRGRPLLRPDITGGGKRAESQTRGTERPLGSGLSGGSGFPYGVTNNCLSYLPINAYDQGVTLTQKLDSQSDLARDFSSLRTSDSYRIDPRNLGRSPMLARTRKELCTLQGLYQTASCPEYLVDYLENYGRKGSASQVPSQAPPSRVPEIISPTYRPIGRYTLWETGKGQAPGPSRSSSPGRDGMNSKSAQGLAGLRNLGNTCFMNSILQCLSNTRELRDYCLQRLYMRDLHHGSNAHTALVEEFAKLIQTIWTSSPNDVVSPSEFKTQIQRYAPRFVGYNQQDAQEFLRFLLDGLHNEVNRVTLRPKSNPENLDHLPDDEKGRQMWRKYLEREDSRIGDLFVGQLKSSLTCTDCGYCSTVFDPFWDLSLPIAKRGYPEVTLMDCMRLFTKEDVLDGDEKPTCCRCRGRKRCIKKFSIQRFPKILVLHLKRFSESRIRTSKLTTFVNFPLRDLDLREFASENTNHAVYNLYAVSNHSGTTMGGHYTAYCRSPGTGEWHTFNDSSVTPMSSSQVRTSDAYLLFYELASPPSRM
Description: Inhibition of recombinant human N-terminal His-tagged USP2 catalytic domain (258 to 605 residues) expressed in Escherichia coli BL21(DE3) at 100 uM using human N-terminal GST-tagged UBA52 as substrate pretreated for 10 mins followed by substrate addition after 60 mins by coomassie staining based assay.

Test [2] deals with T2, Ubiquitin carboxyl-terminal hydrolase 2 (Homo sapiens, UniProt O75604).
T2 sequence (O75604 whole entry): T1 sequence (whole entry)
Put plainly: Inhibition of recombinant human N-terminal His-tagged USP2 catalytic domain (258 to 605 residues) expressed in Escherichia coli BL21(DE3) using human N-terminal GST-tagged UBA52 as substrate pretreated for 10 mins followed by substrate addition after 60 mins by coomassie staining based assay.

The source made the active and inactive calls. The rule behind the calls is not given here.

The term IC50 denotes the concentration at which inhibition is half-maximal. Take `CC(=O)Nc1cccc(CNC(=O)c2sc3ccccc3c2OCc2ccccc2)c1`: the inhibition result in test [1] was “Active”. In addition, the IC50 in test [2] lay within 66.1 to 74.3 µM.
